Measurements published in patent publication US20250333397A1 (REMIX THERAPEUTICS INC., priority 2021, published 2025).
Where two headings read alike, the source gives them in different places.

Key:
Assay type in all cases: cell-based, human
[1] = system: HTT mRNA; experiment: RT-qPCR splicing assay, HTT canonical (CJ) and alternative (AJ) junction mRNA; conditions: Homo sapiens; for AC50: read-out: HTT AJ (AC50, increase in AJ mRNA)
Method in brief: (§1)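 CJ and AJ junction levels were quantified by RT-qPCR on lysates, with housekeeper ΔCt normalized to DMSO (ΔΔCt) and expressed as RQ = 2^(-ΔΔCt). Before lysis, K562 or A673 cells had 24 h compound exposure at 37 °C. Dosing was 11 points, 3-fold, from 10 uM final, with DMSO at most 0.25%.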

[2] = system: Target C mRNA; experiment: RT-qPCR splicing assay panel, Target C canonical junction (CJ) mRNA; conditions: Homo sapiens
Method in brief: as §1

[3] = system: SMN2 mRNA; experiment: RT-qPCR splicing assay panel, SMN2 canonical junction (CJ) mRNA; conditions: Homo sapiens
Method in brief: as §1

[4] = system: MYB mRNA; experiment: RT-qPCR splicing assay, MYB canonical (CJ) and alternative (AJ) junction mRNA; conditions: Homo sapiens; for AC50: read-out: MYB AJ (AC50, increase in AJ mRNA)
Method in brief: as §1

[5] = 24 h, Table 3A, A673 or K562 cells, 24 h treatment
[6] = canonical junction (CJ) mRNA, RT-qPCR panel, Table 4A, read-out: HTT, decrease in CJ mRNA levels, IC50
[7] = canonical junction (CJ) mRNA, RT-qPCR panel, Table 4A, read-out: Target C, decrease in CJ mRNA levels, IC50
[8] = canonical junction (CJ) mRNA, RT-qPCR panel, Table 4A, read-out: SMN2, decrease in CJ mRNA levels, IC50
[9] = canonical junction (CJ) mRNA, RT-qPCR panel, Table 4A, read-out: MYB, decrease in CJ mRNA levels, IC50
[10] = 24 h, Table 3B, A673 or K562 cells, 24 h treatment
[11] = 24 h, Table 3B, A673 or K562 cells, 24 h treatment, read-out: HTT CJ (IC50, decrease in CJ mRNA)
[12] = Table 4B, gene panel, read-out: HTT (IC50, decrease in CJ mRNA levels)
[13] = Table 4B, gene panel, read-out: Target C (IC50, decrease in CJ mRNA levels)
[14] = Table 4B, gene panel, read-out: SMN2 (IC50, decrease in CJ mRNA levels)
[15] = 24 h, Table 3B, A673 or K562 cells, 24 h treatment, read-out: MYB CJ (IC50, decrease in CJ mRNA)
[16] = Table 4B, gene panel, read-out: MYB (IC50, decrease in CJ mRNA levels)

Compound | AC50 [1, 5] | IC50 ([1]; 24 h, Table 3A, A673 or K562 cells, 24 h treatment, read-out: HTT CJ (IC50, decrease in CJ mRNA)) | IC50 [1, 6] | IC50 [2, 7] | IC50 [3, 8] | AC50 [4, 5] | IC50 ([4]; 24 h, Table 3A, A673 or K562 cells, 24 h treatment, read-out: MYB CJ (IC50, decrease in CJ mRNA)) | IC50 [4, 9] | AC50 [1, 10] | IC50 [1, 11] | IC50 [1, 12] | IC50 [2, 13] | IC50 [3, 14] | AC50 [4, 10] | IC50 [4, 15] | IC50 [4, 16]
COc1cc(-c2cc(O)c(-c3ccc(N4CC[C@@](C)(NCC5CC5)C4)nn3)cc2F)cnn1 [Compound 451, 2-{6-[(3R)-3-[(cyclopropylmethyl)amino]-3-methylpyrrolidin-1-yl]pyridazin-3-yl}-4-fluoro-5-(6-methoxypyridazin-4-yl)phenol] | 100 to 1000 nM | < 100 nM | < 100 nM | 100 to 1000 nM | < 100 nM | 100 to 1000 nM | 100 to 1000 nM | 100 to 1000 nM |  |  |  |  |  |  |  | 
COc1cc(-c2cc(O)c(-c3ccc(N4CC[C@](C)(NCC5CC5)C4)nn3)cc2F)cnn1 [Compound 452, 2-{6-[(3S)-3-[(cyclopropylmethyl)amino]-3-methylpyrrolidin-1-yl]pyridazin-3-yl}-4-fluoro-5-(6-methoxypyridazin-4-yl)phenol] |  |  | < 100 nM | 100 to 1000 nM | 100 to 1000 nM |  |  | 100 to 1000 nM |  |  |  |  |  |  |  | 
Cc1ncc(-c2cc(O)c(-c3ccc(N4CC[C@@H](CNC5CCC5)C4)nn3)cc2F)s1 [Compound 453] |  |  | < 100 nM | 1000 to 10000 nM | < 100 nM |  |  | 1000 to 10000 nM |  |  |  |  |  |  |  | 
Cc1ncc(-c2cc(O)c(-c3ccc(N4CC[C@H](CNC5CCC5)C4)nn3)cc2F)s1 [Compound 454] |  |  | < 100 nM | 100 to 1000 nM | < 100 nM |  |  | 1000 to 10000 nM |  |  |  |  |  |  |  | 
Oc1cc(-c2cc(OC(F)(F)F)ncn2)ccc1-c1ccc(N2CCC(NCC3CC3)C2)nn1 (stereo not drawn) [Compound 455] |  |  | > 10000 nM | > 10000 nM | > 10000 nM |  |  | > 10000 nM |  |  |  |  |  |  |  | 
Cn1c(=O)oc2cc(-c3ccc(N4CCC(NC(C)(C)C)C4)nn3)c(O)cc21 (stereo not drawn) [Compound 800] |  |  |  |  |  |  |  |  | 100 to 1000 nM | 100 to 1000 nM | 100 to 1000 nM | 100 to 1000 nM | < 100 nM | 100 to 1000 nM | 1000 to 10000 nM | 1000 to 10000 nM
Cn1cc2cc(-c3ccc(N4CCC(NC(C)(C)C)C4)nn3)c(O)cc2n1 (stereo not drawn) [Compound 801] |  |  |  |  |  |  |  |  | 1000 to 10000 nM | 1000 to 10000 nM | 1000 to 10000 nM | 1000 to 10000 nM | 100 to 1000 nM | 1000 to 10000 nM | 1000 to 10000 nM | 1000 to 10000 nM
Cn1cc2cc(-c3cnc(N4CC[C@@H](NC(C)(C)C)C4)nn3)c(O)cc2n1 [Compound 805] |  |  |  |  |  |  |  |  | 1000 to 10000 nM | 100 to 1000 nM | 100 to 1000 nM | 1000 to 10000 nM | 1000 to 10000 nM | > 10000 nM | 1000 to 10000 nM | 1000 to 10000 nM
Cc1nc2cc(O)c(-c3cnc(N4CC[C@@H](NC(C)(C)C)C4)nn3)cc2o1 [Compound 808] |  |  |  |  |  |  |  |  | > 10000 nM | 1000 to 10000 nM | 1000 to 10000 nM | > 10000 nM | 1000 to 10000 nM | > 10000 nM | > 10000 nM | > 10000 nM
Cc1nc2cc(O)c(-c3cnc(N4CC[C@H](NC(C)(C)C)C4)nn3)cc2o1 [Compound 809] |  |  |  |  |  |  |  |  | 1000 to 10000 nM | < 100 nM | < 100 nM | 1000 to 10000 nM | 100 to 1000 nM | 1000 to 10000 nM | 1000 to 10000 nM | 1000 to 10000 nM
Cc1nc2cc(O)c(-c3ccc(N4CC[C@@H](NC(C)(C)C)C4)nn3)cc2o1 [Compound 812] |  |  |  |  |  |  |  |  | < 100 nM | < 100 nM | < 100 nM | 100 to 1000 nM | < 100 nM | 100 to 1000 nM | 100 to 1000 nM | 100 to 1000 nM
